Results from patent US6440935B1, “Inhibition of eucaryotic pathogens and neoplasms and stimulation of fibroblasts and lymphocytes with lytic peptides” (priority 1987, dated 2002).
Like-named read-outs stand apart in the source and are kept apart here. Residues, ends and D or L forms follow the SMILES beside them. No end group written: not given here.

How the values were obtained:
[1] = EL-4 cytotoxicity by chromium release; format: cell-based; conditions: for cytotoxicity at 30 min, 100 μM: mouse, EL-4 cells
Procedure: (§1) The EL-4 cells were then incubated for 30 minutes in the presence of various peptides at different concentrations. Cytotoxicity was taken as a percentage of chromium released (measured in the culture supernatant) relative to the chromium released by EL-4 cells lysed by detergent.
(§2) Similar chromium release data were obtained using the same procedure with a 100 μM concentration of peptide, but with EL-4 cell concentrations of 2×10^6, 10^6, and 5×10^5 cells in 0.5 ml medium.
(§3) The chromium release data was also obtained by using the supernatant from unlabeled EL-4 cells cultured for 30 minutes in the presence of 100 μM peptide as medium for […] EL-4 cultured as described above. The percent cytotoxicity calculated as described above was 20.16 for cecropin SB-37, 19.73 for *cecropin SB-37, 41.96 for Shiva 1, and 106.67 for melittin.

EL-4 cells = test: EL-4 cytotoxicity by chromium release; format: cell-based; conditions: 30 minutes, 10^6 EL-4 cells
Procedure: as §1, §2, §3

Saccharomyces cerevisiae = test: Effect of lytic peptides on S. cerevisiae (plate count); conditions: 1 hour at 37° C., PBS pH 6.8, 500 at 0 μM
mammary carcinoma = test: In vivo effect on murine mammary carcinoma; parameters: species or system BALB/c mouse; conditions: 1.76 mg (88 mg/kg) daily, three days, injected directly into the carcinoma
Procedure: One BALB/c mouse was given daily injections of 1.76 mg (88 mg/kg) Shiva 1 in PBS for three consecutive days as described in the foregoing examples.

[2] = S. intermedius 19930 viability in lytic peptide/lysozyme; conditions: Viability (%), lysozyme at ten times
[3] = tested on: T. cruzi intracellular amastigotes in Vero cells; test: In vitro effect on T. cruzi intracellular amastigotes in Vero cells; format: cell-based, Trypanosoma cruzi; conditions: one hour period, relative to no peptide
Procedure: Vero cells at 10^5 cells/ml in MEM-FBS were mixed with Trypanosoma Cruzi in the trypomastigote stage at 10^5 cells/ml in the same medium at a 1:1 ratio of Vero cells to trypomastigotes. The mixture of Vero cells and trypomastigotes was cultured at 37° C. in a 5% CO2 atmosphere in microscope slide chambers. At 24 hours, cecropin SB-37 was added to the chambers, except for a set of controls, at a final concentration of 100 μM. […]

[4] = EL-4 cell viability by trypan blue exclusion; format: cell-based; conditions: one hour, 95% at 0 μM
Procedure: EL-4 lymphoma cells were suspended in RPMI 1640 at 5,000,000/ml with 500,000 cells per well. Various concentrations of cecropin SB-37 and Shiva 1 were added and the wells incubated at 37° C. in a 5% CO2 atmosphere for one hour. Viability was determined by microscopic observation for trypan blue exclusion.

[5] = tested on: Plasmodium falciparum in human red blood cells; conditions: for 3H-Hypoxanthine Uptake: 24 hours
Brucella abortus [6] = format: in vivo, BALB/C mice; conditions: 0.176 mg/day for 4 days from day 12 post infection; sacrificed day 16; control 8.15 × 10^3
E. coli E/2/64 = test: Lysozyme/cecropin synergism against E. coli (plate growth)
Brucella abortus [7] = format: cell-based; conditions: 50 μM
[8] = tested on: Erwinia caratovora subsp. carotova; test: Plant pathogen LD50 in cecropin SB-37/lysozyme; format: cell-based; conditions: incubation at 30° C.
[9] = tested on: Pseudomonas syringae pv. tabaci; test: Plant pathogen LD50 in cecropin SB-37/lysozyme; format: cell-based; conditions: incubation at 30° C.
[10] = tested on: Xanthomonas campestris pv. campestris; test: Plant pathogen LD50 in cecropin SB-37/lysozyme; format: cell-based; conditions: incubation at 30° C.
eucaryotes = test: Lytic activity, general statements of the description; conditions: general statement, no test described
[11] = 100 μM, 2 × 10^6 cells per 0.5 ml, read-out: Percent Cytotoxicity
[12] = supernatant from unlabeled EL-4 cells cultured 30 minutes with 100 μM peptide used as medium for labeled EL-4, read-out: percent cytotoxicity

Molecule: CC[C@H](C)[C@H](NC(=O)CN)C(=O)NCC(=O)N[C@@H](C)C(=O)N[C@H](C(=O)N[C@@H](CC(C)C)C(=O)N[C@@H](CCCCN)C(=O)N[C@H](C(=O)N[C@@H](CC(C)C)C(=O)N[C@H](C(=O)N[C@H](C(=O)NCC(=O)N[C@@H](CC(C)C)C(=O)N1CCC[C@H]1C(=O)N[C@@H](C)C(=O)N[C@@H](CC(C)C)C(=O)N[C@H](C(=O)N[C@@H](CO)C(=O)N[C@@H](Cc1c[nH]c2ccccc12)C(=O)N[C@H](C(=O)N[C@@H](CCCCN)C(=O)N[C@@H](CCCNC(=N)N)C(=O)N[C@@H](CCCCN)C(=O)N[C@@H](CCCNC(=N)N)C(=O)N[C@@H](CCC(N)=O)C(=O)N[C@@H](CCC(N)=O)C(N)=O)[C@@H](C)CC)[C@@H](C)CC)[C@@H](C)O)[C@@H](C)O)C(C)C)C(C)C [Melittin, reference compound]
- cytotoxicity at 30 min, 100 μM [1, 11]: 105%
- cytotoxicity at 30 min, 100 μM [1, 12]: 107%
- Percent Cytotoxicity (chromium release vs detergent-lysed cells) (EL-4 cells; 10 μM): 109.65%
- Percent Cytotoxicity (chromium release vs detergent-lysed cells) (EL-4 cells; 25 μM): 106.65%
- Percent Cytotoxicity (chromium release vs detergent-lysed cells) (EL-4 cells; 50 μM): 106.81%
- Percent Cytotoxicity (chromium release vs detergent-lysed cells) (EL-4 cells; 100 μM): 102.43%
- Plate Count (Thousands) (Saccharomyces cerevisiae; 5 μM): 260 Thousands
- Plate Count (Thousands) (Saccharomyces cerevisiae; 50 μM): 0 Thousands

Molecule: CC[C@H](C)[C@H](NC(=O)CNC(=O)[C@H](CCC(N)=O)NC(=O)[C@H](CCCCN)NC(=O)[C@@H](NC(=O)[C@H](CCC(N)=O)NC(=O)[C@H](CCCCN)NC(=O)CNC(=O)[C@@H](NC(=O)[C@H](CCCNC(=N)N)NC(=O)[C@H](CC(=O)O)NC(=O)[C@@H](NC(=O)[C@H](CCCNC(=N)N)NC(=O)[C@H](CCCNC(=N)N)NC(=O)[C@H](Cc1ccccc1)NC(=O)[C@H](CC(C)C)NC(=O)[C@H](CCCNC(=N)N)NC(=O)[C@H](Cc1c[nH]c2ccccc12)NC(=O)[C@H](CCCNC(=N)N)NC(=O)[C@@H]1CCCN1C(=O)[C@@H](N)CCSC)[C@@H](C)CC)C(C)C)[C@@H](C)CC)C(=O)N[C@@H](CC(C)C)C(=O)N[C@@H](CCCNC(=N)N)C(=O)N[C@@H](C)C(=O)NCC(=O)N1CCC[C@H]1C(=O)N[C@@H](C)C(=O)N[C@H](C(=O)N[C@@H](C)C(=O)N[C@@H](CC(C)C)C(=O)N[C@H](C(=O)NCC(=O)N[C@@H](CC(=O)O)C(=O)N[C@@H](C)C(=O)N[C@@H](CCCNC(=N)N)C(=O)N[C@@H](C)C(=O)N[C@H](C(=O)NCC(N)=O)C(C)C)C(C)C)[C@@H](C)CC [Shiva 1] (H-MPRWRLFRRIDRVGKQIKQGILRAGPAIALVGDARAVG-NH2)
- cytotoxicity at 100 µM [1, 11]: 84.9%
- cytotoxicity at 100 µM ([1]; 100 μM, 5 × 10^5 cells per 0.5 ml, read-out: Percent Cytotoxicity): 98.7%
- cytotoxicity at 100 µM ([1]; 100 μM, 10^6 cells per 0.5 ml, read-out: Percent Cytotoxicity): 89.2%
- cytotoxicity [1, 12]: 42%
- Percent Cytotoxicity (chromium release vs detergent-lysed cells) (EL-4 cells; 10 μM): 0.37%
- Percent Cytotoxicity (chromium release vs detergent-lysed cells) (EL-4 cells; 25 μM): 16.7%
- Percent Cytotoxicity (chromium release vs detergent-lysed cells) (EL-4 cells; 50 μM): 42.73%
- Percent Cytotoxicity (chromium release vs detergent-lysed cells) (EL-4 cells; 100 μM): 82.35%
- immediate cause of death at autopsy (mammary carcinoma): shock
- outcome following the third injection (mammary carcinoma; one mouse): died almost immediately
- viability: 0%
- viability at 0.01 µM: 100%
- viability at 0.1 µM: 69.6%
- viability at 1 µM: 37.9%
- viability at 5 µM: 1.5%
- viability at 7.5 µM: 0.1%
- viability at 0.01 µM ([2]; peptide concentration 0.01 μM): 100%
- viability at 0.1 µM ([2]; peptide concentration 0.1 μM): 81.8%
- viability at 0.5 µM ([2]; peptide concentration 0.5 μM): 65%
- viability at 1 µM ([2]; peptide concentration 1.0 μM): 42.1%
- viability at 5 µM ([2]; peptide concentration 5.0 μM): 35.2%
- viability ([2]; peptide concentration 10. μM): 1.2%
- viability ([2]; peptide concentration 50. μM): 0%
- LD50 (concentration for 50% reduction in number of infected Vero cells) [3]: about 9 μM
- viability ([4]; 10 μM): 85%
- viability ([4]; 25 μM): 60%
- viability ([4]; 50 μM): 50%
- viability ([4]; 100 μM): 10%
- LD50 (concentration for 50% reduction in 3H-hypoxanthine uptake) ([5]; 24-hour period, relative to untreated infected red blood cells): about 10 μM

Molecule: CN(C)[C@@H]1C(O)=C(C(N)=O)C(=O)[C@@]2(O)C(O)=C3C(=O)c4c(O)cccc4[C@@](C)(O)[C@H]3C[C@@H]12 [Tetracycline, tetracycline]
- Concentration of Brucella abortus in spleen tissue (Brucella abortus [6]): 4.4 × 10^3 Number per gram of spleen

Molecule: Cecropin B: naturally occurring potent bacteriolytic peptide obtainable from insects; sequence in Table 1 (KWKVFKKIEKMGRNIRNGIVKAGPAIAVLGEAKAL; ends and bridges not checked; UniProt P01508 27-61, looked up)
- growth of E. coli (plate counts) (E. coli E/2/64; 5 μM, 90 minutes at room temperature): no growth of E. coli
- growth of E. coli (E. coli E/2/64; one nanomolar and one micromolar): positive E. coli growth
- Plate Count (Thousands) (Saccharomyces cerevisiae; 5 μM): 500 Thousands
- Plate Count (Thousands) (Saccharomyces cerevisiae; 50 μM): 75 Thousands
- Plate Count (Thousands) (Saccharomyces cerevisiae; 750 μM): 0 Thousands
- 3H-Hypoxanthine Uptake ([5]; 1 μM, P. falciparum 0.0625 PPRC): 380 cpm
- 3H-Hypoxanthine Uptake ([5]; 1 μM, P. falciparum 0.125 PPRC): 565 cpm
- 3H-Hypoxanthine Uptake ([5]; 1 μM, P. falciparum 0.25 PPRC): 1293 cpm
- 3H-Hypoxanthine Uptake ([5]; 1 μM, P. falciparum 0.5 PPRC): 2860 cpm
- 3H-Hypoxanthine Uptake ([5]; 20 μM, P. falciparum 0.0625 PPRC): 405 cpm
- 3H-Hypoxanthine Uptake ([5]; 20 μM, P. falciparum 0.125 PPRC): 495 cpm
- 3H-Hypoxanthine Uptake ([5]; 20 μM, P. falciparum 0.25 PPRC): 1066 cpm
- 3H-Hypoxanthine Uptake ([5]; 20 μM, P. falciparum 0.5 PPRC): 2333 cpm
- 3H-Hypoxanthine Uptake ([5]; 200 μM, P. falciparum 0.0625 PPRC): 25 cpm
- 3H-Hypoxanthine Uptake ([5]; 200 μM, P. falciparum 0.125 PPRC): 20 cpm
- 3H-Hypoxanthine Uptake ([5]; 200 μM, P. falciparum 0.25 PPRC): 40 cpm
- 3H-Hypoxanthine Uptake ([5]; 200 μM, P. falciparum 0.5 PPRC): 50 cpm
- Results (growth of Brucella abortus) (Brucella abortus [7]): No growth

Molecule: Lysozyme
- LD50 (Pseudomonas solanacearum): >1000 µM
- LD50 [8]: >1000 µM
- Viability (%) (Pseudomonas aeruginosa): 0.4%
- Viability (%) (Pseudomonas aeruginosa; 0.01 µM): 100%
- Viability (%) (Pseudomonas aeruginosa; 0.1 µM): 82.2%
- Viability (%) (Pseudomonas aeruginosa; 1 µM): 52.1%
- Viability (%) (Pseudomonas aeruginosa; 5 µM): 7.9%
- Viability (%) (Pseudomonas aeruginosa; 7.5 µM): 0.6%
- LD50 [9]: >1000 µM
- LD50 [10]: >1000 µM
- Viability (%) (S. intermedius 19930; 0.01 µM): 100%
- Viability (%) (S. intermedius 19930; 0.1 µM): 100%
- Viability (%) (S. intermedius 19930; 0.5 µM): 81.3%
- Viability (%) (S. intermedius 19930; 1 µM): 53%
- Viability (%) (S. intermedius 19930; 5 µM): 49.5%

Molecule: cecropin A
- lytic activity compared with other lytic peptides (eucaryotes): about as lytically active as cecropin B and SB-37
